Measured values as given in publication PMC11277476, “Synthesis and Biological Evaluation of Novel 2-Aroyl Benzofuran-Based Hydroxamic Acids as Antimicrotubule Agents” (International Journal of Molecular Sciences, 2024).

Tests used:
[1] = tested on: bovine brain tubulin; assay: Inhibition of tubulin polymerization (turbidimetric); assay type: biochemical; conditions: tubulin at 10 μM; 20 min incubation at 30 °C; read-out: Tubulin Assembly IC50 ± SD
How it was run: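 Assembly: 10 μM bovine brain tubulin preincubated with compound in 0.8 M monosodium glutamate pH 6.6 at 30 °C, chilled, GTP added, then warmed to 30 °C and followed turbidimetrically. Colchicine binding: 0.5 μM tubulin with 5 μM [3H]colchicine and 5 μM compound, DEAE-cellulose filter by gravity.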

[2] = tested on: HT-29 cells; assay: Annexin V-PI flow cytometric analysis of apoptosis, HT-29; assay type: cell-based, human; conditions: 96 h
Experimental: (§1) The quantification of apoptosis induced by the test compounds was carried out with flow cytometric analysis using the Annexin-V Fluos kit (Roche Diagnostics, Milan, Italy) following the manufacturer’s instructions. Cancer cells treated with the test compounds for the indicated time points and concentrations were then labeled with annexin V/FITC and PI and analyzed with BD FACS Celesta^TM Flow Cytometer (BD Bioscience, Franklin Lakes, NJ, USA) using the FL1 and FL3 channel, respectively, and FlowJo_v10.7.1 software.

[3] = tested on: tubulin (colchicine site); assay: Inhibition of [3H]colchicine binding to tubulin; parameters: species or system bovine; conditions: tubulin 0.5 µM, [3H]colchicine 5 µM, tested compound 5 µM
Experimental: Bovine brain tubulin was purified as described previously. To evaluate the effects of the compounds on tubulin assembly in vitro [77], varying concentrations were preincubated with 10 μM tubulin in 0.8 M monosodium glutamate (pH 6.6) at 30 °C, and the reaction mixtures were then cooled to 0 °C. After addition of GTP, the mixtures were transferred to 0 °C cuvettes in Beckman Coulter (Brea, CA, USA) DU-7400/DU-7500 recording spectrophotometers equipped with electronic temperature controllers and were warmed to 30 °C, and the assembly of tubulin was observed turbidimetrically. […] Inhibition of colchicine binding to tubulin was measured as described before, except that the reaction mixtures contained 0.5 μM tubulin and 5 μM each of [^3H]colchicine and test compound. Only one DEAE-cellulose filter was used per sample, and filtration was via gravity.

[4] = tested on: MDA-MB-231 cells; assay: In vitro growth inhibition (resazurin, 72 h), MDA-MB-231; assay type: cell-based; conditions: Homo sapiens, mean ± SE
[5] = tested on: HeLa cells; assay: In vitro growth inhibition (resazurin, 72 h), HeLa; assay type: cell-based; conditions: Homo sapiens, concentration inhibiting tumor cell proliferation by 50%, mean ± SE
[6] = tested on: HT-29 cells; assay: Cell cycle analysis (PI, flow cytometry); assay type: cell-based, human; conditions: 250 nM for 24 h (figure legend)
Experimental: HT29 cells were treated with the indicated compounds for 24 h and then harvested and fixed in 70% ice-cold ethanol for 24 h. The cells were next treated with a 0.1% v/v solution of Triton X-100 in phosphate buffered saline (PBS) containing 10 μg/mL RNAse A and 20 μg/mL PI. The cells were incubated at room temperature for 30 min and then analyzed on a BD FACS Celesta^TM Flow Cytometer (BD Bioscience, Franklin Lakes, NJ, USA) in the FL3 channel. DNA histograms were analyzed using FlowJo_v10.7.1 software (BD Bioscience, Franklin Lakes, NJ, USA).

[7] = tested on: HeLa cells; assay: Annexin V-PI flow cytometric analysis of apoptosis, HeLa; assay type: cell-based, human; conditions: 48 h, lower dose tested 25 nM
Experimental: as §1

[8] = tested on: human peripheral blood mononuclear cells (PBMC), not stimulated with PHA; assay: Cytotoxicity in resting PBMC (resazurin, 72 h); assay type: cell-based; conditions: mean ± SEM
Excerpt: (§2) Peripheral blood mononuclear cells (PBMC), obtained from human peripheral blood (leucocyte-rich plasma-buffy coats) of healthy volunteers using a Lymphoprep^TM (Serumwerk Bernburg AG) gradient, were used for the evaluation of the cytotoxic potential of compounds in normal human cells.
(§3) After extensive washing with saline solution (Hank’s Buffer Saline Solution, BioConcept, Allschwil, Switzerland), quiescent PBMCs were resuspended (1.0 × 10^6 cells/mL) in RPMI-1640 medium supplemented with 10% FBS. To evaluate cytotoxicity in proliferating PBMCs cultures, cells were resuspended at a concentration of 5 × 10^5 cells/mL in a growth medium containing […] of PHA (Irvine Scientific, Santa Ana, CA, USA). The same cellular density was utilized for resting PBMC cultures, without the addition of PHA. The tested compounds were added at different concentrations, and after a 72 h incubation, cell viability was determined using the resazurin test as described above.

[9] = molecular target: T1, human recombinant HDAC6 (Homo sapiens, UniProt Q9UBN7); assay: HDAC isoform inhibition, fluorogenic substrate, HDAC6; assay type: biochemical; conditions: mean ± SE, read-out: IC50 (µM) hHDAC6
T1 construct: purchased BPS Bioscience 50056
T1 sequence (Q9UBN7 1-1215): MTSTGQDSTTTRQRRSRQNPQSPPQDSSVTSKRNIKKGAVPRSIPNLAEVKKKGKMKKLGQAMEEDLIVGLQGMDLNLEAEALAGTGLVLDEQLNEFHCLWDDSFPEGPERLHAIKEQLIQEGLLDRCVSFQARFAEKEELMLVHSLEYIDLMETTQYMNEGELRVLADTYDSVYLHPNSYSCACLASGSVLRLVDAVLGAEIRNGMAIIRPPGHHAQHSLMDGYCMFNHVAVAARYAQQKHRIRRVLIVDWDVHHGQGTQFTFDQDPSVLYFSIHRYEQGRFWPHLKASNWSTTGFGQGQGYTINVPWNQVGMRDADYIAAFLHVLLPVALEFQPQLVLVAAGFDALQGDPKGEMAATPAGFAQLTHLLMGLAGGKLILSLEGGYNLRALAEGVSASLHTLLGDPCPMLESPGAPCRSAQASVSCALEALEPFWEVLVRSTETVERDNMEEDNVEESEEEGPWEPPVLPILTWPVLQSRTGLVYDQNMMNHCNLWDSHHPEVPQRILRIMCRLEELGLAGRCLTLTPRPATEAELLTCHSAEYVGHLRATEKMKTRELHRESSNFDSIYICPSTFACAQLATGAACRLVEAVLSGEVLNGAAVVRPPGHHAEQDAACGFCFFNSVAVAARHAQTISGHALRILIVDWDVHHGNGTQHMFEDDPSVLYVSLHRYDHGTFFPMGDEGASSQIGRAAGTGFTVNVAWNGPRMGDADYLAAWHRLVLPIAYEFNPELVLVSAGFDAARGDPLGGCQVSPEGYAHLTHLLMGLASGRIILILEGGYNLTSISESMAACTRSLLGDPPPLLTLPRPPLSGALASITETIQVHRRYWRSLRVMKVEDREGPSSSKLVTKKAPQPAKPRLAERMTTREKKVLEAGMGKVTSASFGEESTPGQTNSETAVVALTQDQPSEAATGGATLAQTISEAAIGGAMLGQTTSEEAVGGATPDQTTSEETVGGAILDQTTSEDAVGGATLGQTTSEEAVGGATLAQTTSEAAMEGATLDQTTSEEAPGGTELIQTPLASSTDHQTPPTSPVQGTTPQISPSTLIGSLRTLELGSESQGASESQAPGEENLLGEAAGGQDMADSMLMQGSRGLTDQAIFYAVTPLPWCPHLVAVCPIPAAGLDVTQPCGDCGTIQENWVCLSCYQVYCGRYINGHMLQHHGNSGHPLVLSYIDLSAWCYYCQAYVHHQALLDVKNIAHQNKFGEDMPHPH
Experimental: Further experiments were also carried out to evaluate the inhibitory activities of test compounds on selected HDAC isoforms. […] Following an incubation of 15 min at RT, fluorescence was measured in an EnSight multimodal plate reader (PerkinElmer, Boston, MA, USA) with an excitation wavelength of 360 nm and an emission wavelength of 450 nm.

[10] = tested on: A549 cells; assay: In vitro growth inhibition (resazurin, 72 h), A549; assay type: cell-based; conditions: Homo sapiens, mean ± SE
[11] = tested on: acetylated histone H3 (Ac-H3K9) in HT-29 cells; assay: Western blot of acetylated histone H3 (Ac-H3K9) in HT-29 cells; assay type: cell-based, human; conditions: 10 µM, 6 h
Experimental: HT-29 cells were treated with selected compounds for 6 h at 10 µM, lysed, and then processed as previously described.
Antibodies directed against total histone H3 and its acetylated form (Ac-H3K9) were purchased from Cell Signaling Technology, Danvers, Massachusetts, while anti-vinculin antibody was purchased from Santa Cruz Biotechnology. Membranes were visualized using ECL select (GE Healthcare), and images were acquired using the iBright FL1500 Imaging System (Thermo Fisher Scientific, Waltham, MA, USA). Anti-vinculin (1:25,000, Santa Cruz Biotechnology, Dallas, TX, USA) was used as loading controls.

[12] = tested on: MCF-7 cells; assay: In vitro growth inhibition (resazurin, 72 h), MCF-7; assay type: cell-based; conditions: Homo sapiens, MCF7, mean ± SE
[13] = tested on: HT-29 cells; assay: In vitro growth inhibition (resazurin, 72 h), HT-29; assay type: cell-based; conditions: Homo sapiens, mean ± SE
[14] = tested on: human peripheral blood mononuclear cells (PBMC) stimulated with PHA; assay: Cytotoxicity in PHA-stimulated PBMC (resazurin, 72 h); assay type: cell-based; conditions: mean ± SEM
Excerpt: as §2, §3

SMILES | IC50 [1] [nM] | induction of apoptosis / cell death (annexin V/PI), in words [2] | Colchicine Binding % Inhibition ± SD [3] [%] | IC50 [4] [nM] | IC50 [5] [nM] | Percentage of HT-29 cells in G1 phase [6] [%] | Percentage of HT-29 cells in G2/M phase [6] [%] | Percentage of HT-29 cells in S phase [6] [%] | cytotoxic effect (annexin V/PI), in words [7] | GI50 [8] [µM] | IC50 [9] [µM] | IC50 [10] [nM] | acetylated histone H3 (Ac-H3K9) level, Western blot [11] | IC50 [12] [nM] | IC50 [13] [nM] | GI50 [14] [µM]
COc1ccc(/C=C\c2cc(OC)c(OC)c(OC)c2)cc1O [CA-4, combretastatin A-4, reference compound] | […] | completely resistant | 98 ± 2 | […] | 4.6 ± 0.1 | 41.83 | 27.38 | 30.79 | greatest cytotoxic effects at the lower dose tested |  |  |  |  |  |  | 
COc1cc2oc(C(=O)c3cc(OC)c(OC)c(OC)c3)cc2cc1/C=C/C(=O)NO [Compound 6i, (E)-N-Hydroxy-3-(6-methoxy-2-(3,4,5-trimethoxybenzoyl)benzofuran-5-yl)acrylamide] | 1600 ± 300 | able to induce cell apoptosis | 43 ± 4 | 93.7 ± 2.04 | 14.8 ± 0.32 | 4.13 | 91.07 | 4.79 |  | > 10 | 5.16 ± 0.34 | 304 ± 1.46 | significantly increased acetylated histone H3 (Ac-H3K9) | 69 ± 6 | 272 ± 2.03 | 2.32 ± 0.23
COc1cc2oc(C(=O)c3ccccc3)c(C)c2cc1/C=C/C(=O)NO [Compound 6g, (E)-3-(2-Benzoyl-6-methoxy-3-methylbenzofuran-5-yl)-N-hydroxyacrylamide] | 690 ± 100 | able to induce cell apoptosis | 86 ± 5 | 23.9 ± 0.77 | 0.36 ± 0.01 | 34.91 | 40.74 | 24.35 | greatest cytotoxic effects at the lower dose tested | > 10 | 10.2 ± 0.7 | 36.7 ± 0.91 |  | 30 ± 0.7 | 80.3 ± 1.31 | 0.15 ± 0.02
